17 molecules from patent US20100184815A1 (priority 2008, published 2010) can be followed below.

Structures are written as SMILES.

What all share (type): cell-based
In one test the target is T1, Gal-4 hPPARβ/δ (Homo sapiens, UniProt Q03181).
T1 construct: Plasmids pGal4-hPPARα, pGal4-hPPARγ, pGal4-hPPARδ and pG5-TK-pGL3 were constructed as previously described by Staels, Bart, et al., Nature 1998 Jun; 25
T1 sequence (Q03181 171-441 limits assumed): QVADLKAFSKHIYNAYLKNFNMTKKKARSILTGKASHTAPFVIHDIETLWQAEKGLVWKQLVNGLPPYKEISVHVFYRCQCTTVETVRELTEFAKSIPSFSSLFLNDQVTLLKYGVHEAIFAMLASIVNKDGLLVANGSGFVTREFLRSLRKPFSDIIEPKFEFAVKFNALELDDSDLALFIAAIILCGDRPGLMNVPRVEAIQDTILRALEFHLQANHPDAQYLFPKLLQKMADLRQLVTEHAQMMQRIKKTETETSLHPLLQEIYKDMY
The test can be described thus: Gal4-hPPARδ transient transfection reporter assay in Cos cells. The conditions noted are these: luciferase reporter, 24 hours with compound, scale 1-5, read-out: Gal-4 hPPAR β/δ EC50 (scaled number). The procedure:
(§1) Construction of recombinant plasmids. Plasmids pGal4-hPPARα, pGal4-hPPARγ, pGal4-hPPARδ and pG5-TK-pGL3 were constructed as previously described by Staels, Bart, et al., Nature 1998 Jun. 25; 393 (6687): 790-793, by Staels (Institut Pasteur de Lille, FR).
(§2) Transient transfection assays. Cos cells were seeded in 60-mm dishes at a density of 5.5×10^5 cells/dish in Dulbecco's modified Eagle's medium (DMEM) supplemented with 10% fetal calf serum (FCS) and incubated at 37° C. for 24 hours before transfection. Cells were transfected in Opti-MEM (Gibco; Invitrogen, Carlsbad, Calif.) without FCS for 3 hours at 37° C., using polyethylenimine, with reporter and expression plasmids. The plasmid pBluescript (Stratagene, La Jolla, Calif.) was used as carrier DNA to set the final amount of DNA to 5.5 μg/dish. The pCMV-b-galactosidase expression plasmid was cotransfected as a control for transfection efficiency. Transfection was stopped by the addition of DMEM supplemented with 10% FCS, and cells were then incubated at 37° C. After 16 hours, cells were trypsinized and seeded in 96-well plates at the density of 2×10^4 cells/well and incubated for 6 hours in 10% FCS-containing DMEM. Cells were then incubated for 24 hours in DMEM containing 0.2% FCS and increasing concentrations of the compound tested or vehicle (DMSO). At the end of the experiment, cells were washed once with ice-cold PBS, lysed and the luciferase and b-galactosidase assays were performed in a luminometer and spectrophotomer. Transfection efficiencies were normalized with the b-galactosidase activity assay. Half-maximal effective concentration (EC50) was estimated using Prism software (GraphPad). All transfection experiments were performed at least three times.
(§3) In the following tables, proprietary compound EC50 values for hPPAR α, β, δ and γ are shown. The EC50 value is the concentration of a drug that induces a response halfway between the baseline and maximum, and is commonly used as a measure of drug potency. EC50 values are reported on a scale of 1 through 5, wherein the value scale is defined for each receptor as follows: […]
On the technique in general: A reporter such as luciferase makes a cellular process visible.

In another test the target is T2, Gal-4 hPPARγ (Homo sapiens, UniProt P37231).
T2 construct: Plasmids pGal4-hPPARα, pGal4-hPPARγ, pGal4-hPPARδ and pG5-TK-pGL3 were constructed as previously described by Staels, Bart, et al., Nature 1998 Jun; 25
T2 sequence (P37231 238-505 limits assumed): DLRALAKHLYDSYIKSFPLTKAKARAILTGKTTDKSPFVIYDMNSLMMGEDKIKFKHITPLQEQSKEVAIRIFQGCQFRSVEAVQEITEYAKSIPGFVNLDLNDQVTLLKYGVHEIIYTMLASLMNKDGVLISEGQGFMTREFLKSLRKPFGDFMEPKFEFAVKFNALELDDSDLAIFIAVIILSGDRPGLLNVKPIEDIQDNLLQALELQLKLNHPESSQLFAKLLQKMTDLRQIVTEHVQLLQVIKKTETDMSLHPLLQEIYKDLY
In words: Gal4-hPPARγ transient transfection reporter assay in Cos cells. The note with it: luciferase reporter, 24 hours with compound, scale 1-5, read-out: Gal-4 hPPAR γ EC50 (scaled number). The procedure:
as §1, §2, §3

A further test deals with T3, Gal-4 hPPARα (Homo sapiens, UniProt Q07869).
T3 construct: Plasmids pGal4-hPPARα, pGal4-hPPARγ, pGal4-hPPARδ and pG5-TK-pGL3 were constructed as previously described by Staels, Bart, et al., Nature 1998 Jun; 25
T3 sequence (Q07869 200-468 limits assumed): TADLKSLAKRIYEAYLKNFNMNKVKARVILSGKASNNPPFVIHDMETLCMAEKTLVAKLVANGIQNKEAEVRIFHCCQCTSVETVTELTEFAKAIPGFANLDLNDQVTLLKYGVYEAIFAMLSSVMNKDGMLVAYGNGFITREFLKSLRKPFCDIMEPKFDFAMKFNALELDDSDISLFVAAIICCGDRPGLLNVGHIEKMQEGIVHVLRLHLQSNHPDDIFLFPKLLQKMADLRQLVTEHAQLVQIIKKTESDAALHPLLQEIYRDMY
In words: Gal4-hPPARα transient transfection reporter assay in Cos cells. The note with it: luciferase reporter, 24 hours with compound, scale 1-5, read-out: Gal-4 hPPAR α EC50 (scaled number). The procedure: as §1, §2, §3

Turning to `CCCn1c(COC(=O)c2ccc(SC(C)(C)C(=O)O)cc2)nn(Cc2ccc(F)cc2)c1=O` [Compound 165, 2-(4-(((1-(4-fluorobenzyl)-5-oxo-4-propyl-4,5-dihydro-1H-1,2,4-triazol-3-yl)methoxy)carbonyl)phenylthio)-2-methylpropanoic acid], the EC50 on Gal-4 hPPARβ/δ was > 1000 nM; on Gal-4 hPPARγ it was > 1000 nM; on Gal-4 hPPARα, 51 to 200 nM.

As for `CC(C)(Sc1ccc(C(=O)OCc2cnn(Cc3ccc(C(C)(C)C)cc3)c2)cc1)C(=O)O` [Compound 6, 2-(4-(((1-(4-tert-butylbenzyl)-1H-pyrazol-4-yl)methoxy)carbonyl)phenylthio)-2-methylpropanoic acid], the figures for the EC50 on Gal-4 hPPARβ/δ, on Gal-4 hPPARγ and at Gal-4 hPPARα were > 1000 nM, 201 to 999 nM and 1 to 50 nM, respectively.

Regarding `C[C@@H](OC(=O)c1ccc(SC(C)(C)C(=O)O)cc1)c1cn(Cc2cccc(C(F)(F)F)c2)nn1` [Compound 139, 4-(1-Carboxy-1-methyl-ethylsulfanyl)-benzoic acid (R)-1-[1-(3-trifluoromethyl-benzyl)-1H-1,2,3-triazol-4-yl]-ethyl ester], the EC50 is > 1000 nM on Gal-4 hPPARβ/δ, > 1000 nM on Gal-4 hPPARγ and 1 to 50 nM on Gal-4 hPPARα.

For `CC(C)(Sc1ccc(C(=O)OCc2cn(Cc3ccc(OC(F)(F)F)cc3)nn2)cc1)C(=O)O` [Compound 73, 2-methyl-2-(4-(((1-(4-(trifluoromethoxy)benzyl)-1H-1,2,3-triazol-4-yl)methoxy)carbonyl)phenylthio)propanoic acid], the EC50 was > 1000 nM on Gal-4 hPPARβ/δ, > 1000 nM on Gal-4 hPPARγ and 51 to 200 nM on Gal-4 hPPARα.

On to `Cc1ccc(Cn2cc(CCOC(=O)c3ccc(SC(C)(C)C(=O)O)cc3)nn2)cc1` [Compound 145, 4-(1-Carboxy-1-methyl-ethylsulfanyl)-benzoic acid 2-[1-(4-methyl-benzyl)-1H-1,2,3-triazol-4-yl]-ethyl ester], for which the EC50 at Gal-4 hPPARβ/δ was > 1000 nM; at Gal-4 hPPARγ, > 1000 nM; at Gal-4 hPPARα, 201 to 999 nM.

`Cc1ccc(-n2cc(COC(=O)c3ccc(OC(C)(C)C(=O)O)cc3)c(-c3ccccc3)n2)cc1` [Compound 17, 2-methyl-2-(4-(((3-phenyl-1-p-tolyl-1H-pyrazol-4-yl)methoxy)carbonyl)phenoxy)propanoic acid]: the EC50 on Gal-4 hPPARβ/δ fell in the range of 1 to 50 nM; on Gal-4 hPPARγ, 201 to 999 nM; on Gal-4 hPPARα it was 51 to 200 nM.

Consider `Cc1ccc(Cn2nc(COC(=O)c3ccc(SC(C)(C)C(=O)O)cc3)[nH]c2=O)cc1` [Compound 261, 4-(1-Carboxy-1-methyl-ethylsulfanyl)-benzoic acid 1-(4-methyl-benzyl)-5-oxo-4,5-dihydro-1H-1,2,4-triazol-3-ylmethyl ester], for which the EC50 on Gal-4 hPPARβ/δ was > 1000 nM; on Gal-4 hPPARγ, > 1000 nM; on Gal-4 hPPARα, 51 to 200 nM.

On to `Cc1ccc(Cn2cc([C@H](C)OC(=O)c3ccc(SC(C)(C)C(=O)O)cc3)nn2)cc1` [Compound 85, (S)-2-methyl-2-(4-((1-(1-(4-methylbenzyl)-1H-1,2,3-triazol-4-yl)ethoxy)carbonyl)phenylthio)propanoic acid], for which the EC50 on Gal-4 hPPARβ/δ is > 1000 nM; on Gal-4 hPPARγ it was > 1000 nM; at Gal-4 hPPARα it was 201 to 999 nM.

For `CCCCCCn1c(COC(=O)c2ccc(SC(C)(C)C(=O)O)cc2)nn(Cc2ccc(C(F)(C(F)(F)F)C(F)(F)F)cc2)c1=O` [Compound 203, 2-(4-(((4-hexyl-5-oxo-1-(4-(perfluoropropan-2-yl)benzyl)-4,5-dihydro-1H-1,2,4-triazol-3-yl)methoxy)carbonyl)phenylthio)-2-methylpropanoic acid], the EC50 is > 1000 nM at Gal-4 hPPARβ/δ, > 1000 nM at Gal-4 hPPARγ and 1 to 50 nM on Gal-4 hPPARα.

Regarding `CC(C)(Sc1ccc(C(=O)OCc2cnn(-c3ccc(C(F)(F)F)cc3)c2)cc1)C(=O)O` [Compound 18, 2-methyl-2-(4-(((1-(4-(trifluoromethyl)phenyl)-1H-pyrazol-4-yl)methoxy)carbonyl)phenylthio)propanoic acid], the EC50 at Gal-4 hPPARβ/δ fell in the range of 201 to 999 nM; on Gal-4 hPPARγ, 201 to 999 nM; at Gal-4 hPPARα, 1 to 50 nM.

Take `CC(C)(Sc1ccc(C(=O)OCc2cnn(Cc3ccc4ccccc4c3)c2)cc1)C(=O)O` [Compound 26, 2-methyl-2-(4-(((1-(naphthalen-2-ylmethyl)-1H-pyrazol-4-yl)methoxy)carbonyl)phenylthio)propanoic acid]: the EC50 at Gal-4 hPPARβ/δ was > 1000 nM; on Gal-4 hPPARγ, > 1000 nM; at Gal-4 hPPARα, 1 to 50 nM.

As for `CCCn1c(COC(=O)c2ccc(SC(C)(C)C(=O)O)cc2)nn(Cc2cc(C(F)(F)F)cc(C(F)(F)F)c2)c1=O` [Compound 177, 2-(4-(((1-(3,5-bis(trifluoromethyl)benzyl)-5-oxo-4-propyl-4,5-dihydro-1H-1,2,4-triazol-3-yl)methoxy)carbonyl)phenylthio)-2-methylpropanoic acid], the EC50 at Gal-4 hPPARβ/δ was > 1000 nM; at Gal-4 hPPARγ, 201 to 999 nM; on Gal-4 hPPARα, 1 to 50 nM.

For the molecule `CCCCCCn1c(COC(=O)c2ccc(OC(C)(C)C(=O)O)cc2)nn(Cc2ccc(C(F)(C(F)(F)F)C(F)(F)F)cc2)c1=O` [Compound 204, 2-(4-(((4-hexyl-5-oxo-1-(4-(perfluoropropan-2-yl)benzyl)-4,5-dihydro-1H-1,2,4-triazol-3-yl)methoxy)carbonyl)phenoxy)-2-methylpropanoic acid], the EC50 on Gal-4 hPPARβ/δ is > 1000 nM; at Gal-4 hPPARγ, > 1000 nM; on Gal-4 hPPARα, 51 to 200 nM.

For the molecule `CC(C)(Sc1ccc(C(=O)OCc2cnn(Cc3cccc(C(F)(F)F)c3)c2)cc1)C(=O)O` [Compound 30, 2-methyl-2-(4-(((1-(3-(trifluoromethyl)benzyl)-1H-pyrazol-4-yl)methoxy)carbonyl)phenylthio)propanoic acid], the results for the EC50 on Gal-4 hPPARβ/δ, on Gal-4 hPPARγ and at Gal-4 hPPARα were > 1000 nM, > 1000 nM and 1 to 50 nM, respectively.

Consider `CC(C)(Sc1ccc(C(=O)OCc2cnn(Cc3ccc(OC(F)(F)F)cc3)c2)cc1)C(=O)O` [Compound 32, 2-methyl-2-(4-(((1-(4-(trifluoromethoxy)benzyl)-1H-pyrazol-4-yl)methoxy)carbonyl)phenylthio)propanoic acid], for which the EC50 on Gal-4 hPPARβ/δ is > 1000 nM; at Gal-4 hPPARγ, > 1000 nM; at Gal-4 hPPARα it was 1 to 50 nM.

For `CC(C)(Sc1ccc(C(=O)OCc2cn(Cc3ccc(C(F)(F)F)cc3)nn2)cc1)C(=O)O` [Compound 102, 2-methyl-2-(4-(((1-(4-(trifluoromethyl)benzyl)-1H-1,2,3-triazol-4-yl)methoxy)carbonyl)phenylthio)propanoic acid], the results for the EC50 on Gal-4 hPPARβ/δ, at Gal-4 hPPARγ and at Gal-4 hPPARα were > 1000 nM, > 1000 nM and 51 to 200 nM, respectively.

As for `CCCn1c(COC(=O)c2ccc(SC(C)(C)C(=O)O)cc2)nn(Cc2ccc(SC(F)(F)F)cc2)c1=O` [Compound 179, 2-methyl-2-(4-(((5-oxo-4-propyl-1-(4-(trifluoromethylthio)benzyl)-4,5-dihydro-1H-1,2,4-triazol-3-yl)methoxy)carbonyl)phenylthio)propanoic acid], the EC50 was > 1000 nM on Gal-4 hPPARβ/δ, > 1000 nM on Gal-4 hPPARγ and 51 to 200 nM on Gal-4 hPPARα.
